In paper PMC7265341, “Quantifying CDK inhibitor selectivity in live cells” (Nature Communications, 2020):
Read-outs that look alike come from different tables or passages of the source.

What was measured:
[1] = target: CDK10/Cyclin L2 (Homo sapiens, UniProt Q15131); test: NanoBRET live-cell target engagement, CDK10-NanoLuc/Cyclin L2 in HEK-293; conditions: CDK10/L2
[2] = target: CDK6/Cyclin D1 (Homo sapiens, UniProt Q00534); test: NanoBRET live-cell target engagement, NanoLuc-CDK6/Cyclin D1 in HEK-293; type: binding; conditions: CDK6/D1; for IC50: read-out: IC50
[3] = target: CDK5/CDK5R1 (Homo sapiens, UniProt Q00535); test: NanoBRET live-cell target engagement, CDK5-NanoLuc/CDK5R1 in HEK-293; type: binding; conditions: CDK5/CDK5R1
Sequence of CDK5/CDK5R1 (Q00535 whole entry): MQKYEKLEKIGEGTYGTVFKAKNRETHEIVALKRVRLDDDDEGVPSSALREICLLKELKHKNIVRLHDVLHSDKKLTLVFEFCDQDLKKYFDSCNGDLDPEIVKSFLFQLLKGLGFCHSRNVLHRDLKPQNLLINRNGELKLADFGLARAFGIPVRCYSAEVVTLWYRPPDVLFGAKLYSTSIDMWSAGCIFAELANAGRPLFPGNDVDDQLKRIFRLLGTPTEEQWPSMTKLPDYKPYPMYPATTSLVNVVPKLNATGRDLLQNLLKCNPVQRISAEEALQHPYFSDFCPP
Sequence of CDK5/CDK5R1 (Q15078 whole entry partner): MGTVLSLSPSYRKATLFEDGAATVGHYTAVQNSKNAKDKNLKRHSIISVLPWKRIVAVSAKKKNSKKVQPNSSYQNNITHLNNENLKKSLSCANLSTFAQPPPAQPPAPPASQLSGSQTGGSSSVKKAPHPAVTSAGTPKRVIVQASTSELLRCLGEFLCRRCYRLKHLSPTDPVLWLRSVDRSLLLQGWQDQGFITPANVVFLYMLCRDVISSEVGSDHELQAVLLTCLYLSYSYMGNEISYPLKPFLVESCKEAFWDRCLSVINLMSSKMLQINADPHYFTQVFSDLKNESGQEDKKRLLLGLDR

[4] = target: CDK4/Cyclin D1 (Homo sapiens, UniProt P11802); test: NanoBRET live-cell target engagement, NanoLuc-CDK4/Cyclin D1 in HEK-293; type: binding; conditions: CDK4/D1; for IC50: read-out: IC50
[5] = target: T1, CDK11A/Cyclin L2 (Homo sapiens, UniProt Q9UQ88); test: NanoBRET live-cell target engagement, CDK11A-NanoLuc/Cyclin L2 in HEK-293; type: binding; conditions: CDK11a/L2
T1 sequence (Q9UQ88 1-783): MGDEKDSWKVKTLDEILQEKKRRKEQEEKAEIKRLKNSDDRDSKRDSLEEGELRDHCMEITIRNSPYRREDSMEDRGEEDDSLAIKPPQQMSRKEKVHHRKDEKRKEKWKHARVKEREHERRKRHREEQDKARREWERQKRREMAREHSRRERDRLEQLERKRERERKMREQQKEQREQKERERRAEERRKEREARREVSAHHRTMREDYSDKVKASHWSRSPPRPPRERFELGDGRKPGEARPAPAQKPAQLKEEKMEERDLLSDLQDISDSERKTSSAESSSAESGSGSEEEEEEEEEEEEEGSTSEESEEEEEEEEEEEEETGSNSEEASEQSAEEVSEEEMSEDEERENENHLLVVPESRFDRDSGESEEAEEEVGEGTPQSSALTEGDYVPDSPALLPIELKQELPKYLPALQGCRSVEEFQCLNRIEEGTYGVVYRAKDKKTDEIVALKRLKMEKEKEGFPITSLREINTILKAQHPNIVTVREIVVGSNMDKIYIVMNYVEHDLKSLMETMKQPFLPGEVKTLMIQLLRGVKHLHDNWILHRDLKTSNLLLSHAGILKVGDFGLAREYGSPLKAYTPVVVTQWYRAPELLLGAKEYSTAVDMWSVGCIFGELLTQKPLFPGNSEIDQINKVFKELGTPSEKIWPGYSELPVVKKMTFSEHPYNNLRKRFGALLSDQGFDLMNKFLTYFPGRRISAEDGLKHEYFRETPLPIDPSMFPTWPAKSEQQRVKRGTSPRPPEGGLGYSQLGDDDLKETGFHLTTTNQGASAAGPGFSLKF

[6] = target: CDK15/Cyclin Y (Homo sapiens, UniProt Q96Q40); test: NanoBRET live-cell target engagement, NanoLuc-CDK15/Cyclin Y in HEK-293; type: binding; conditions: CDK15/Y; for IC50: read-out: IC50
[7] = target: CDK3/Cyclin E1 (Homo sapiens, UniProt Q00526); test: NanoBRET live-cell target engagement, CDK3-NanoLuc/Cyclin E1 in HEK-293; type: binding; conditions: CDK3/E1
[8] = target: CDK13/Cyclin K (Homo sapiens, UniProt Q14004); test: NanoBRET live-cell target engagement, CDK13-NanoLuc/Cyclin K in HEK-293; type: binding; conditions: CDK13/K
Sequence of CDK13/Cyclin K (O75909 whole entry): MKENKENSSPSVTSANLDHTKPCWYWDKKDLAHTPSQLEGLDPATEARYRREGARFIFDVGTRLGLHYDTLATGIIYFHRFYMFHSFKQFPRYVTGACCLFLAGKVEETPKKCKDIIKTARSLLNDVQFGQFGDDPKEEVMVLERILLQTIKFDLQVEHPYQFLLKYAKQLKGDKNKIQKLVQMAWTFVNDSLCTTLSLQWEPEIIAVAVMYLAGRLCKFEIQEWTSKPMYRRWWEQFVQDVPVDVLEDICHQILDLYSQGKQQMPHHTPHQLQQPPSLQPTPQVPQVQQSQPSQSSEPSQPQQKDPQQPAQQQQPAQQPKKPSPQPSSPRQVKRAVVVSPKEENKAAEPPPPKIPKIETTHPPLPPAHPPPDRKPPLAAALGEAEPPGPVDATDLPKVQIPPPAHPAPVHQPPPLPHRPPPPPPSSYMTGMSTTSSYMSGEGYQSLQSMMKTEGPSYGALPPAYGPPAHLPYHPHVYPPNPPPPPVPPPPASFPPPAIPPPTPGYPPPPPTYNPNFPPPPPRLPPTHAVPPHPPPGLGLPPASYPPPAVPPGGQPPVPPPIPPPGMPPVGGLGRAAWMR
Sequence of CDK13/Cyclin K (Q14004 other isoform, or with tags, fused parts or gaps): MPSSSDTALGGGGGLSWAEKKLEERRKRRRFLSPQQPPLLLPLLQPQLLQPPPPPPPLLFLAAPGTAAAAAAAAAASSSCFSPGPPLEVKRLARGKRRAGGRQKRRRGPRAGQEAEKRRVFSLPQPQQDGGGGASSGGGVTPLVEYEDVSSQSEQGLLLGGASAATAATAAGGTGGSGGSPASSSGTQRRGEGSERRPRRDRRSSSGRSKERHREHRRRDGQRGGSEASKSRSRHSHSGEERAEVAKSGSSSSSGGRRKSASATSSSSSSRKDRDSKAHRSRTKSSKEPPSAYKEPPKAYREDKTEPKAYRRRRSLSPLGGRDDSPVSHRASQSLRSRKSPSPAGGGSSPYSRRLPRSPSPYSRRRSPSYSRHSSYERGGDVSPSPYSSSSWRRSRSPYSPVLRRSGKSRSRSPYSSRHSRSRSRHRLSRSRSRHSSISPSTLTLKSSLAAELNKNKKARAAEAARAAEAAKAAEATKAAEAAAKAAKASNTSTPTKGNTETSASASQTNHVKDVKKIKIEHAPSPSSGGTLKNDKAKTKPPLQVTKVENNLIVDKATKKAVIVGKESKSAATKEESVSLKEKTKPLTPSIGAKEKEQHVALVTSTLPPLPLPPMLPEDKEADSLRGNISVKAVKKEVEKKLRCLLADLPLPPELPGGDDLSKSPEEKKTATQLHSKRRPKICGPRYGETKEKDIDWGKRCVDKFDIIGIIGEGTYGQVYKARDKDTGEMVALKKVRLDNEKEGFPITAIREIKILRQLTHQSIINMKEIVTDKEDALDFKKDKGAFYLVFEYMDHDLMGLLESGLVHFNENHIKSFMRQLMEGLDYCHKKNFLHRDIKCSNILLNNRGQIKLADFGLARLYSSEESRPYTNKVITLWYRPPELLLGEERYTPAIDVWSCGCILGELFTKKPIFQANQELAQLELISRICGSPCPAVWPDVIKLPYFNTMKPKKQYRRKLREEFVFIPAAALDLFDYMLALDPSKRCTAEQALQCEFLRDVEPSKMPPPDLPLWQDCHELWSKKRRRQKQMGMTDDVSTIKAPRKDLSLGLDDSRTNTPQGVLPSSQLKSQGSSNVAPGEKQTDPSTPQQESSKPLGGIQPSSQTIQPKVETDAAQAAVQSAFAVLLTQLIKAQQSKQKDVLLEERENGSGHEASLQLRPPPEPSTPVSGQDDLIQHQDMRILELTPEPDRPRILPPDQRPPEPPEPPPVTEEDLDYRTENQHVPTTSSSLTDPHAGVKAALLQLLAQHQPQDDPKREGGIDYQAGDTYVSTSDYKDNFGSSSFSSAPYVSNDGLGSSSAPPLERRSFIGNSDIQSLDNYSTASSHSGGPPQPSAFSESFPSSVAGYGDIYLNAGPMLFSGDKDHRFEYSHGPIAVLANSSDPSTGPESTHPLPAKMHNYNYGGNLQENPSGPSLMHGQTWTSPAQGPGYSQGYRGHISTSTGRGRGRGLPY

[9] = target: CDK20/Cyclin H (Homo sapiens, UniProt Q8IZL9); test: NanoBRET live-cell target engagement, NanoLuc-CDK20/Cyclin H in HEK-293; type: binding; conditions: CDK20/H
[10] = target: CDK16/Cyclin Y (Homo sapiens, UniProt Q00536); test: NanoBRET live-cell target engagement, CDK16-NanoLuc/Cyclin Y in HEK-293; type: binding; conditions: CDK16/Y; for IC50: read-out: IC50
[11] = target: CDK12/Cyclin K (Homo sapiens, UniProt Q9NYV4); test: NanoBRET live-cell target engagement, CDK12-NanoLuc/Cyclin K in HEK-293; type: binding; conditions: CDK12/K
Sequence of CDK12/Cyclin K (Q9NYV4 1-1481 isoform Q9NYV4-2): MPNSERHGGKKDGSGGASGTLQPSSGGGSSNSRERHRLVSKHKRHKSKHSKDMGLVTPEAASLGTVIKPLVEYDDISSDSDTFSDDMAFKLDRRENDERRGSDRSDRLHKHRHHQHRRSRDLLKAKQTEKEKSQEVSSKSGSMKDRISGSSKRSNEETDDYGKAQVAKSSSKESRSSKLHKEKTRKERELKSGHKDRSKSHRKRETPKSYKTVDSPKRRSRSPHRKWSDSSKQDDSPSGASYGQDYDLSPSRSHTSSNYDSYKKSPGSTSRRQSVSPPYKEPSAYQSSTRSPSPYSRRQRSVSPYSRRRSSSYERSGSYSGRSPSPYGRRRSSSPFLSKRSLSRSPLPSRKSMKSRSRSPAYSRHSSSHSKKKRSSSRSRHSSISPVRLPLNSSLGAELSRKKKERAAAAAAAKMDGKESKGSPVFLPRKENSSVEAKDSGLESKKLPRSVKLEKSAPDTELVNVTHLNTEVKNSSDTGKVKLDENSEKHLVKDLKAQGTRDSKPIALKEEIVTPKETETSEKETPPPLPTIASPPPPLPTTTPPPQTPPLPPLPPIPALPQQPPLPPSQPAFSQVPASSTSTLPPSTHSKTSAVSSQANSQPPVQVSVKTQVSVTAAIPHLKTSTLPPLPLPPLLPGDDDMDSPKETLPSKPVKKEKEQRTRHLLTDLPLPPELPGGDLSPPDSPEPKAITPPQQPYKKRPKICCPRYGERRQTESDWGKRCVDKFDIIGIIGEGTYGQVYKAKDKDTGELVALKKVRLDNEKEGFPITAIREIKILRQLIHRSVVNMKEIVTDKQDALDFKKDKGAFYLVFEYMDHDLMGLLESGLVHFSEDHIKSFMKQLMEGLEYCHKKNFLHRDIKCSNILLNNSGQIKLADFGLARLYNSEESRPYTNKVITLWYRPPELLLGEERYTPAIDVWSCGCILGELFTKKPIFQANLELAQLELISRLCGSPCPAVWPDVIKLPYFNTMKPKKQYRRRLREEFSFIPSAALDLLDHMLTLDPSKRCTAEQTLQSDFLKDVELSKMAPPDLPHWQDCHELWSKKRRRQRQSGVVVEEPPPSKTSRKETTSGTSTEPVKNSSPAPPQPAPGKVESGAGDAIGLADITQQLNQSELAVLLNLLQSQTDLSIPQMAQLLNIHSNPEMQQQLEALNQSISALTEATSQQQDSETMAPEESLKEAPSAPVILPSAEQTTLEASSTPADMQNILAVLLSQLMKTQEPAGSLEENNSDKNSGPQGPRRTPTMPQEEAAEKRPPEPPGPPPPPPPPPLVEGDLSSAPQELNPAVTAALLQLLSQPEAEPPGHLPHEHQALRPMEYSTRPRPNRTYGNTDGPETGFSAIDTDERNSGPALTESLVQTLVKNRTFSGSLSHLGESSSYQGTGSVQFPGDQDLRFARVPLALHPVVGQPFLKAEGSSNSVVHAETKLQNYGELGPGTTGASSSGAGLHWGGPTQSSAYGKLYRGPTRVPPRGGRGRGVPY
Sequence of CDK12/Cyclin K (O75909 whole entry partner): as the sequence (O75909 whole entry) above

[12] = target: CDK14/Cyclin Y (Homo sapiens, UniProt O94921); test: NanoBRET live-cell target engagement, CDK14-NanoLuc/Cyclin Y in HEK-293; type: binding; conditions: CDK14/Y; for IC50: read-out: IC50
[13] = target: CDK11B/Cyclin L2 (Homo sapiens, UniProt P21127); test: NanoBRET live-cell target engagement, CDK11B-NanoLuc/Cyclin L2 in HEK-293; type: binding; conditions: CDK11b/L2
[14] = target: CDK8/Cyclin C (Homo sapiens, UniProt P49336); test: NanoBRET live-cell target engagement, NanoLuc-CDK8/Cyclin C in HEK-293; type: binding; conditions: CDK8/C
[15] = target: CDK18/Cyclin Y (Homo sapiens, UniProt Q07002); test: NanoBRET live-cell target engagement, CDK18-NanoLuc/Cyclin Y in HEK-293; type: binding; conditions: CDK18/Y
[16] = target: CDK17/Cyclin Y (Homo sapiens, UniProt Q00537); test: NanoBRET live-cell target engagement, CDK17-NanoLuc/Cyclin Y in HEK-293; type: binding; conditions: CDK17/Y; for IC50: read-out: IC50
[17] = target: CDK19/Cyclin C (Homo sapiens, UniProt Q9BWU1); test: NanoBRET live-cell target engagement, NanoLuc-CDK19/Cyclin C in HEK-293
Sequence of CDK19/Cyclin C (Q9BWU1 whole entry): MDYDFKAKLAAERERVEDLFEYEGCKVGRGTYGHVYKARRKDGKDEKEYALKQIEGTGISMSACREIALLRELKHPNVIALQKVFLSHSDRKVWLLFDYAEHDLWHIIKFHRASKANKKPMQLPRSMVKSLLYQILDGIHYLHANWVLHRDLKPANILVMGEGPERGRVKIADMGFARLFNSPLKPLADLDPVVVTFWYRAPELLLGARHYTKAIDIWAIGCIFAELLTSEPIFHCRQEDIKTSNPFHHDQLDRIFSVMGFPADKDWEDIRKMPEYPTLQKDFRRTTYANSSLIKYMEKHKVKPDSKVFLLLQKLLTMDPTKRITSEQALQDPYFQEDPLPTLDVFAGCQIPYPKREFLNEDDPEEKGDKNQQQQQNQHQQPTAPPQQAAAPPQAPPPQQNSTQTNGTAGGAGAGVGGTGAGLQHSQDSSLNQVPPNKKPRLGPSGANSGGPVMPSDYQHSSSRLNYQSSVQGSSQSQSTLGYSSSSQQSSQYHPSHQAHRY
Sequence of CDK19/Cyclin C (P24863 whole entry partner): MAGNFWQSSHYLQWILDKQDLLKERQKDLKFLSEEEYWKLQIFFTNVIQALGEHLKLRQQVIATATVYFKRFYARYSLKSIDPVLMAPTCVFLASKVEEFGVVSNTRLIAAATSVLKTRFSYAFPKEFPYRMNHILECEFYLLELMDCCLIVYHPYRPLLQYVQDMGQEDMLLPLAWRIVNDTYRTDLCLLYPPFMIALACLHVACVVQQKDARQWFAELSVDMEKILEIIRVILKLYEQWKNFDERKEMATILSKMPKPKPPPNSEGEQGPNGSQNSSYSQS

Compound: CNc1nc(C)c(-c2nc(Nc3cccc(S(N)(=O)=O)c3)ncc2F)s1 [CDKI-73]
- Inhibition at 10µM (%) ([1]; average): 40.1%
- Inhibition at 10µM (%) ([1]; experiment 1): 36.9%
- Inhibition at 10µM (%) ([1]; experiment 2): 43.3%
- Inhibition at 10µM (%) ([2]; average): 99.1%
- IC50 ([2]; average (± SEM where n=3)): 14 nM
- Inhibition at 10µM (%) ([2]; experiment 1): 98.8%
- IC50 ([2]; experiment 1): 22 nM
- Inhibition at 10µM (%) ([2]; experiment 2): 99.3%
- IC50 ([2]; experiment 2): 6.6 nM
- Inhibition at 10µM (%) ([3]; average): 90.6%
- Inhibition at 10µM (%) ([3]; experiment 1): 88.4%
- Inhibition at 10µM (%) ([3]; experiment 2): 92.7%
- Inhibition at 10µM (%) ([4]; average): 93.8%
- IC50 ([4]; average (± SEM where n=3)): 12 nM
- Inhibition at 10µM (%) ([4]; experiment 1): 99.0%
- IC50 ([4]; experiment 1): 13 nM
- Inhibition at 10µM (%) ([4]; experiment 2): 88.5%
- IC50 ([4]; experiment 2): 11 nM
- Inhibition at 10µM (%) ([5]; average): 42.8%
- Inhibition at 10µM (%) ([5]; experiment 1): 32.6%
- Inhibition at 10µM (%) ([5]; experiment 2): 53.0%
- Inhibition at 10µM (%) ([6]; average): 92.4%
- IC50 ([6]; average (± SEM where n=3)): 80 nM
- Inhibition at 10µM (%) ([6]; experiment 1): 92.6%
- IC50 ([6]; experiment 1): 107 nM
- Inhibition at 10µM (%) ([6]; experiment 2): 92.2%
- IC50 ([6]; experiment 2): 54 nM
- Inhibition at 10µM (%) ([7]; average): 97.0%
- Inhibition at 10µM (%) ([7]; experiment 1): 94.8%
- Inhibition at 10µM (%) ([7]; experiment 2): 99.2%
- Inhibition at 10µM (%) ([8]; average): 37.1%
- Inhibition at 10µM (%) ([8]; experiment 1): 35.9%
- Inhibition at 10µM (%) ([8]; experiment 2): 38.4%
- Inhibition at 10µM (%) ([9]; experiment 1): 73.0%
- Inhibition at 10µM (%) ([9]; experiment 2): 44.8%
- IC50 ([10]; average (± SEM where n=3)): 4.1 nM
- Inhibition at 10µM (%) ([10]; experiment 1): 92.7%
- IC50 ([10]; experiment 1): 3.2 nM
- Inhibition at 10µM (%) ([10]; experiment 2): 92.0%
- IC50 ([10]; experiment 2): 4.9 nM
- Inhibition at 10µM (%) ([11]; average): 42.5%
- Inhibition at 10µM (%) ([11]; experiment 1): 31.7%
- Inhibition at 10µM (%) ([11]; experiment 2): 53.2%
- Inhibition at 10µM (%) ([12]; average): 92.7%
- IC50 ([12]; average (± SEM where n=3)): 48 nM
- Inhibition at 10µM (%) ([12]; experiment 1): 93.7%
- IC50 ([12]; experiment 1): 59 nM
- Inhibition at 10µM (%) ([12]; experiment 2): 91.8%
- IC50 ([12]; experiment 2): 37 nM
- Inhibition at 10µM (%) ([13]; average): 50.2%
- Inhibition at 10µM (%) ([13]; experiment 1): 41.6%
- Inhibition at 10µM (%) ([13]; experiment 2): 58.7%
- Inhibition at 10µM (%) ([14]; average): 89.5%
- Inhibition at 10µM (%) ([14]; experiment 1): 81.5%
- Inhibition at 10µM (%) ([14]; experiment 2): 97.4%
- Inhibition at 10µM (%) ([15]; experiment 1): 95.5%
- Inhibition at 10µM (%) ([15]; experiment 2): 102.2%
- Inhibition at 10µM (%) ([16]; average): 92.2%
- IC50 ([16]; average (± SEM where n=3)): 8.3 nM
- Inhibition at 10µM (%) ([16]; experiment 1): 92.4%
- IC50 ([16]; experiment 1): 7.8 nM
- Inhibition at 10µM (%) ([16]; experiment 2): 92.0%
- IC50 ([16]; experiment 2): 8.8 nM
- Inhibition at 10µM (%) ([17]; CDK19/C, average): 79.0%
- IC50 ([17]; CDK19/C, experiment 1): 507 nM
- Inhibition at 10µM (%) ([17]; CDK19/C, experiment 1): 76.8%
- IC50 ([17]; CDK19/C, experiment 2): 120 nM
- Inhibition at 10µM (%) ([17]; CDK19/C, experiment 2): 81.3%
- IC50 ([17]; CDK19/Y (so in the source), average (± SEM where n=3)): 310 nM
